We go through 5 molecules from patent US20150105252A1, “SUBSTITUTED PYRAZOLES AS HERBICIDES” (E I DU PONT DE NEMOURS AND COMPANY, priority 2013, published 2015).

For one test, the system named is foxtail, green. In words: Test E preemergence. The format is in vivo, Setaria viridis. The note with it: 21 days, scale 0 to 100. The source says:
(§1) Seeds of plant species selected from bermudagrass (Cynodon dactylon), Surinam grass (Brachiaria decumbens), crabgrass, large (large crabgrass, Digitaria sanguinalis), crabgrass, naked (naked crabgrass, Digitaria nuda), foxtail, green (green foxtail, Setaria viridis), johnsongrass (Sorghum halepense), kochia (Kochia scoparia), morningglory (pitted morningglory, Ipomoea lacunosa), nutsedge, purple (purple nutsedge, Cyperus rotundus), ragweed (common ragweed, Ambrosia elation), mustard, black (black mustard, Brassica nigra), guineagrass (Panicum maximum), dallisgrass (Paspalum dilatatum), barnyardgrass (Echinochloa crus-galli), sandbur (southern sandbur, Cenchrus echinatus), sowthistle (common sowthistle, Sonchus oleraceous), ryegrass, Italian (Italian ryegrass, Lolium multiflorum), signalgrass (broadleaf signalgrass, Brachiaria platyphylla), dayflower, VA (Virginia (VA) dayflower, Commelina virginica), bluegrass (annual bluegrass, Poa annua), quackgrass (Elytrigia repens), mallow (common mallow, Malva sylvestris), buckwheat, wild (wild buckwheat, Polygonum convolvulus), leafy spurge (Euphorbia esula), common chickweed (Stellaria media), wild poinsettia (Euphorbia heterophylla), pigweed, palmer (palmer pigweed, Amaranthus palmeri), and pigweed (redroot pigweed, Amaranthus retroflexus) were planted into a blend of loam soil and sand and treated preemergence with test chemicals formulated in a non-phytotoxic solvent mixture which included a surfactant.
(§2) Treated plants and controls were maintained in a greenhouse for 21 days, after which time all species were compared to controls and visually evaluated. Plant response ratings, summarized in Table E, are based on a scale of 0 to 100 where 0 is no effect and 100 is complete control. A dash (-) response means no test result.

For a further test, the system named is sandbur. In words: Test E preemergence. The note with it: 21 days, scale 0 to 100. The format is in vivo, Cenchrus echinatus.
Source text: as §1, §2

Another test deals with ryegrass, Italian. The test can be described thus: Test E preemergence. The class given is in vivo, Lolium multiflorum. Conditions: 21 days, scale 0 to 100.
Source text: as §1, §2

A further test deals with bluegrass. In words: Test E preemergence. The class given is in vivo, Poa annua. The note with it: 21 days, scale 0 to 100.
Source text: as §1, §2

In the next test the test system is mallow. The test can be described thus: Test E preemergence. The format is in vivo, Malva sylvestris. Conditions: 21 days, scale 0 to 100.
Source text: as §1, §2

A further test relates to buckwheat, wild. In words: Test E preemergence. Conditions: 21 days, scale 0 to 100. The class given is in vivo, Polygonum convolvulus.
Source text: as §1, §2

Another test has as its system crabgrass, Brazil. The test can be described thus: Test F postemergence. The format is in vivo, Digitaria horizontalis. Conditions: scale 0 to 100. The procedure, abridged: (§3)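 Formulated in surfactant-containing non-phytotoxic solvent; pre: applied to seeded silt loam; post: applied to plants 2–18 cm (1–4 leaves); greenhouse 14–21 d; visual 0–100 rating vs controls.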

For another test, the system named is southern sandbur. The test can be described thus: Test F postemergence. The class given is in vivo, Cenchrus echinatus. The note with it: scale 0 to 100. The procedure, abridged:
as §3

For a further test, the system named is horseweed. In words: Test F postemergence. The format is in vivo, Conyza canadensis. Conditions: scale 0 to 100. The source says:
Seeds of plant species selected from corn (Zea mays), soybean (Glycine max), velvetleaf (Abutilon theophrasti), lambsquarters (Chenopodium album), wild poinsettia (Euphorbia heterophylla), pigweed, palmer (palmer pigweed, Amaranthus palmeri), common waterhemp (Amaranthus rudis), surinam grass (Brachiaria decumbens), large crabgrass (Digitaria sanguinalis), crabgrass, Brazil (Brazilian crabgrass, Digitaria horizontalis), fall panicum (Panicum dichotomiflorum), giant foxtail (Setaria faberii), green foxtail (Setaria viridis), goosegrass (Eleusine indica), johnsongrass (Sorghum halepense), common ragweed (Ambrosia elation), barnyardgrass (Echinochloa crus-galli), southern sandbur (Cenchrus echinatus), arrowleaf sida (Sida rhombifolia), Italian ryegrass (Lolium multiflorum), dayflower, VA (Virginia (VA) dayflower, Commelina virginica), field bindweed (Convolvulus arvensis), cocklebur (common cocklebur, Xanthium strumarium), morningglory (Ipomoea coccinea), nightshade (eastern black nightshade, Solanum ptycanthum), kochia (Kochia scoparia), yellow nutsedge (Cyperus esculentus), and hairy beggarticks (Bidens pilosa), were planted into a silt loam soil and treated preemergence with test chemicals formulated in a non-phytotoxic solvent mixture which included a surfactant.
At the same time, plants from these crop and weed species and also horseweed (Canada horseweed, Conyza canadensis), smartweed (ladysthumb smartweed, Polygonum persicaria), waterhemp_RES1, (ALS & Triazine resistant common waterhemp, Amaranthus rudis), and waterhemp_RES2, (ALS & HPPD resistant common waterhemp, Amaranthus rudis) were treated with postemergence applications of test chemicals formulated in the same manner. Plants ranged in height from 2 to 18 cm for postemergence treatments (1- to 4-leaf stage). Treated plants and controls were maintained in a greenhouse for 14 to 21 days, after which time all species were compared to controls and visually evaluated. Plant response ratings, summarized in Table F, are based on a scale of 0 to 100 where 0 is no effect and 100 is complete control. A dash (-) response means no test result.

For a further test, the system named is kochia. The test can be described thus: Test A preemergence. The format is in vivo, Kochia scoparia. Summed up:
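Greenhouse test in loam soil/sand blend; compounds formulated in non-phytotoxic solvent with surfactant, applied as preemergence directed soil spray or postemergence to plants 2–10 cm tall at one- to two-leaf stage. Injury rated visually versus untreated controls after approximately 10 days on a 0 (no effect) to 100 (complete control) scale.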

The mark [1] stands for this setting: 125 g ai/ha, visual injury, 0 to 100 scale, approx. 10 days.
Where [2] appears, read: 500 g ai/ha, visual injury after approx. 10 days, 0 to 100 scale (0 no effect, 100 complete control).

For `CCOc1cc(C(=O)NCC(F)(F)F)nn1Cc1ccnc(C(F)(F)F)c1` [Compound 104], the “Plant response rating, Foxtail, Green” value is 100 in the test on foxtail, green (16 g ai/ha); 100 in the test on foxtail, green (31 g ai/ha); 100 in the test on foxtail, green (62 g ai/ha); 100 in the test on foxtail, green (125 g ai/ha); 100 in the test with foxtail, green (250 g ai/ha). The “Plant response rating, Sandbur” value with sandbur (16 g ai/ha) is given as 70; with sandbur (31 g ai/ha), 90; in the test on sandbur (62 g ai/ha), 100; with sandbur (125 g ai/ha) it was 98; with sandbur (250 g ai/ha), 100. Besides, the “Plant response rating, Ryegrass, Italian” value in the test with ryegrass, Italian (16 g ai/ha) came out at 75; with ryegrass, Italian (31 g ai/ha) it was 98; in the test on ryegrass, Italian (62 g ai/ha), 100; in the test with ryegrass, Italian (125 g ai/ha) it was 100; with ryegrass, Italian (250 g ai/ha), 100. Besides, the “Plant response rating, Bluegrass” value in the test on bluegrass (16 g ai/ha) is listed as 85; with bluegrass (31 g ai/ha), 100; in the test with bluegrass (62 g ai/ha), 100; in the test with bluegrass (125 g ai/ha), 100; in the test on bluegrass (250 g ai/ha) it was 100. Moreover, the “Plant response rating, Mallow” value worked out at 40 in the test with mallow (16 g ai/ha); 98 in the test with mallow (31 g ai/ha); 100 in the test on mallow (62 g ai/ha); 98 with mallow (125 g ai/ha); 100 in the test with mallow (250 g ai/ha). Also, the “Plant response rating, Buckwheat, Wild” value in the test on buckwheat, wild (16 g ai/ha) stood at 100; in the test on buckwheat, wild (31 g ai/ha) it was 100; in the test with buckwheat, wild (62 g ai/ha), 100; with buckwheat, wild (125 g ai/ha), 100; in the test on buckwheat, wild (250 g ai/ha) it was 100. Also, the “Plant response rating, Crabgrass, Brazil” value in the test with crabgrass, Brazil (Postemergence, 31 g ai/ha) was 40; in the test on crabgrass, Brazil (Postemergence, 125 g ai/ha), 60; in the test with crabgrass, Brazil (Postemergence, 250 g ai/ha), 90; in the test on crabgrass, Brazil (postemergence, 62 g ai/ha) it was 50; with crabgrass, Brazil (postemergence, 500 g ai/ha), 95. In addition, the “Plant response rating, Southern Sandbur” value with southern sandbur (Postemergence, 31 g ai/ha) is on record as 10; with southern sandbur (Postemergence, 125 g ai/ha), 45; in the test on southern sandbur (Postemergence, 250 g ai/ha), 90; in the test with southern sandbur (postemergence, 62 g ai/ha) it was 30; in the test with southern sandbur (postemergence, 500 g ai/ha), 90. Also, the “Plant response rating, Horseweed” value worked out at 25 in the test on horseweed (Postemergence, 31 g ai/ha); 35 with horseweed (Postemergence, 125 g ai/ha); 35 with horseweed (Postemergence, 250 g ai/ha); 30 in the test with horseweed (postemergence, 62 g ai/ha); 45 with horseweed (postemergence, 500 g ai/ha).

Take `CCCc1cc(C(=O)NCC(F)(F)F)nn1Cc1ccnc(C(F)(F)F)c1` [Compound 105]: the “Plant response rating, Foxtail, Green” value was determined as 95 with foxtail, green (16 g ai/ha); 98 with foxtail, green (31 g ai/ha); 100 in the test with foxtail, green (62 g ai/ha); 100 in the test on foxtail, green (125 g ai/ha); 100 in the test on foxtail, green (250 g ai/ha). For the same molecule, the “Plant response rating, Sandbur” value came to 5 in the test on sandbur (16 g ai/ha); 50 in the test with sandbur (31 g ai/ha); 70 with sandbur (62 g ai/ha); 95 in the test with sandbur (125 g ai/ha); 98 in the test with sandbur (250 g ai/ha). Also, the “Plant response rating, Ryegrass, Italian” value came to 65 in the test on ryegrass, Italian (16 g ai/ha); 85 in the test on ryegrass, Italian (31 g ai/ha); 100 in the test on ryegrass, Italian (62 g ai/ha); 100 in the test with ryegrass, Italian (125 g ai/ha); 100 in the test with ryegrass, Italian (250 g ai/ha). Further, the “Plant response rating, Bluegrass” value in the test on bluegrass (16 g ai/ha) is given as 40; in the test on bluegrass (31 g ai/ha) it was 70; in the test on bluegrass (62 g ai/ha), 100; in the test with bluegrass (125 g ai/ha) it was 100; with bluegrass (250 g ai/ha), 100. The “Plant response rating, Mallow” value in the test on mallow (16 g ai/ha), in the test on mallow (31 g ai/ha), with mallow (62 g ai/ha), with mallow (125 g ai/ha) and in the test on mallow (250 g ai/ha) was 100 each time. Also, the “Plant response rating, Buckwheat, Wild” value with buckwheat, wild (16 g ai/ha) is reported as 100; in the test on buckwheat, wild (31 g ai/ha), 100; with buckwheat, wild (62 g ai/ha), 100; in the test with buckwheat, wild (125 g ai/ha), 100; with buckwheat, wild (250 g ai/ha) it was 100. In addition, the “Plant response rating, Crabgrass, Brazil” value with crabgrass, Brazil (Postemergence, 31 g ai/ha) worked out at 30; with crabgrass, Brazil (Postemergence, 125 g ai/ha), 50; with crabgrass, Brazil (Postemergence, 250 g ai/ha) it was 70; in the test with crabgrass, Brazil (postemergence, 62 g ai/ha) it was 35; in the test on crabgrass, Brazil (postemergence, 500 g ai/ha) it was 90. The “Plant response rating, Southern Sandbur” value in the test on southern sandbur (Postemergence, 31 g ai/ha) is 0; with southern sandbur (Postemergence, 125 g ai/ha), 30; in the test on southern sandbur (Postemergence, 250 g ai/ha), 70; in the test on southern sandbur (postemergence, 62 g ai/ha) it was 10; with southern sandbur (postemergence, 500 g ai/ha), 90. The “Plant response rating, Horseweed” value with horseweed (Postemergence, 31 g ai/ha) was determined as 20; in the test with horseweed (Postemergence, 125 g ai/ha) it was 35; with horseweed (Postemergence, 250 g ai/ha) it was 50; in the test with horseweed (postemergence, 62 g ai/ha), 25; in the test with horseweed (postemergence, 500 g ai/ha), 70.

Turning to `CCONC(=O)c1cc(CC)n(Cc2cc(C(F)(F)F)no2)n1` [Compound 125], the “Kochia plant response rating” value in the test on kochia (setting [1]) amounted to 40; in the test with kochia (setting [2]) it was 100.

As for `CCOc1cc(C(=O)NC2CC2)nn1Cc1ccnc(OC(F)F)c1` [Compound 133], the “Kochia plant response rating” value in the test with kochia (setting [1]) and with kochia (setting [2]) was 100 each time.

`CCc1cc(C(=O)NCC(F)(F)F)nn1Cc1cc(OC(F)F)nn1C` [Compound 206]: in the test on kochia (125 g ai/ha, visual injury approx. 10 days after treatment), the “Kochia plant response rating (0 to 100 scale)” value was 50.
